The source of these data is patent US20080287398A1, “COLD MENTHOL RECEPTOR-1 ANTAGONISTS” (priority 2007, published 2008).

The assay concerns the target T1, canine TRPM8 (Canis lupus familiaris, UniProt Q1A7N1).
T1 construct: expressed in transfected cells
The assay can be described thus: In vitro canine TRPM8 functional assay (Ca2+-sensitive dye, FLIPR/FDSS, icilin activation). Particulars: HEK293 cells expressing canine TRPM8, icilin activation; for % I (1 μM): 1 μM compound; for IC50: eight-point dose-response. In kind it is cell-based. How it is done:
The functional activity of compounds of Formula (I) was determined by measuring changes in intracellular calcium concentration using a Ca^2+-sensitive fluorescent dye. The changes in fluorescent signal were monitored by a fluorescence plate reader, either a FLIPR™ (Molecular Devices) or FDSS (Hamamatsu).
HEK293 cells stably expressing canine TRPM8 were routinely grown as monolayers in Dulbecco's minimum essential medium supplemented with 10% FBS, 1 mM L-glutamine, 100 units/mL penicillin, 100 ug/mL streptomycin and 400 μg/mL G418. Cells were maintained in 5% CO2 at 37° C. At 24 hrs prior to assay, cells were seeded in clear-base poly-D-lysine coated 384-well plates (BD Biosciences, NJ, USA) at a density of 5,000 cells per well in culture medium and grown overnight in 5% CO2 at 37° C. On assay day, growth media was removed and cells were loaded with Calcium 3 Dye (Molecular Devices) for 35 min at 37° C., under 5% CO2 and then for 25 min at room temperature and atmosphere. Subsequently, cells were tested for agonist-induced increases in intracellular Ca^2+ levels using FLIPR™ or FDSS. Cells were challenged with a compound of Formula (I) (at varying concentrations) and intracellular Ca^2+ was measured for 5 min prior to the addition of icilin to all wells to achieve a final concentration which produces approximately an 80% maximal response.
Basal FI was subtracted prior to normalizing data to percent of maximal response. Curves were generated using the average of quadruplicate wells for each data point, were analyzed using nonlinear regression of either sigmoidal dose response or sigmoidal dose response (variable slope). Finally, the EC50 and IC50 values were calculated with the best-fit dose curve determined by GraphPad Prism.

Setting [1] is: HEK293, read-out: % I (1 μM), 1 μM compound.
The mark [2] stands for this setting: HEK293, 1 μM compound, read-out: % I (1 μM).

“And” between values parts separate entries of the source, which are not always exact repeats. Equal values may be shown once. Read-outs that look alike come from different tables or passages of the source.

T1 sequence (Q1A7N1 1-1104): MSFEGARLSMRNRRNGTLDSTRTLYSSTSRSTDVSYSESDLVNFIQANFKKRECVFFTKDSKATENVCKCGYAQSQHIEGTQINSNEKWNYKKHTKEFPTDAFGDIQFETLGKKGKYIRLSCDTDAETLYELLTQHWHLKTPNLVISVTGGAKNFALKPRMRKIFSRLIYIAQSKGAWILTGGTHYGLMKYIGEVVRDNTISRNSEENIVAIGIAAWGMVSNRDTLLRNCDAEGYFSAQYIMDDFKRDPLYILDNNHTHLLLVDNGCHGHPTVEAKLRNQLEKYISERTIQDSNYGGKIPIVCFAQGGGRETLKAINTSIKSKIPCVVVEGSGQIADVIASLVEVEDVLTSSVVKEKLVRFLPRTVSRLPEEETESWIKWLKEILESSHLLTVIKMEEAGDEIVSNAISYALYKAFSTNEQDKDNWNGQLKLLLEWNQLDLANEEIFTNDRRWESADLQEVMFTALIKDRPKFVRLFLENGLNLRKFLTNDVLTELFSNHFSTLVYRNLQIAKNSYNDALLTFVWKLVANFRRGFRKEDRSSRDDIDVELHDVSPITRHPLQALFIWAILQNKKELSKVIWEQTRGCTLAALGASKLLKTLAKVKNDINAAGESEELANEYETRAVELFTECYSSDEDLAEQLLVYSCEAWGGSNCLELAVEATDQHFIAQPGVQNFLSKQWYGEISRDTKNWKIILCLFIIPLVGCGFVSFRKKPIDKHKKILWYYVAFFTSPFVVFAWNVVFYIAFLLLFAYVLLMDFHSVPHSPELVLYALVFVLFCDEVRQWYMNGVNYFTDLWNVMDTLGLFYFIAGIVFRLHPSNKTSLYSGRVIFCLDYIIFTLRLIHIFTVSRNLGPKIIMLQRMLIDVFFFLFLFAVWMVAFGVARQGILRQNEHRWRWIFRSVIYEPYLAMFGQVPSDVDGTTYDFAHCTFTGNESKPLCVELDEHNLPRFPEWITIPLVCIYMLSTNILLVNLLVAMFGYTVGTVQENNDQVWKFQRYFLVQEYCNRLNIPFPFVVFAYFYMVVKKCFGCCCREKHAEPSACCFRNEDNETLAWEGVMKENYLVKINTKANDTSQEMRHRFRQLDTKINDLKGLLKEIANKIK

As to `CCOP(=O)(CC(C)C)C(Cc1ccc(F)c(F)c1)c1sc2ccccc2c1C` (stereo not shown) [Cpd 6, [2-(3,4-Difluoro-phenyl)-1-(3-methyl-benzo[b]thiophene-2-yl)-ethyl]-isobutyl-phosphonic acid ethyl ester], the “% I (1 μM)” value is 100%. The IC50 (read-out: IC50) came out at 0.028 µM.
On to `CCOP(=O)(OCC)C(Cc1ccc(F)c(F)c1)c1sc2c(F)cccc2c1C` (stereo not shown) [Cpd 8, [2-(3,4-Difluoro-phenyl)-1-(7-fluoro-3-methyl-benzo[b-]thiophene-2-yl)-ethyl]-phosphonic acid diethyl ester], for which the inhibition at 1 µM under setting [1] worked out at 100%. Also, the IC50 (IC50 (μM)) worked out at 0.037 µM.
For the compound `CCOP(=O)(OCC)C(Cc1ccc(F)c(F)c1)c1oc2ccccc2c1C` (stereo not shown) [Cpd 9, [2-(3,4-Difluoro-phenyl)-1-(3-methyl-benzofuran-2-yl)-ethyl]-phosphonic acid diethyl ester], the inhibition at 1 µM under setting [1] came to 100%. The compound also gave a 50% inhibitory concentration (IC50) (IC50 (μM)) of 0.041 µM.
In the case of `CCOP(=O)(OCC)C(Cc1cccc(F)c1F)c1sc2ccccc2c1C` (stereo not shown) [Cpd 10], the “% I (1 μM)” value stood at 100%. Further, under “read-out: IC50”, the IC50 turned out to be 0.043 µM.
With `Cc1c(C(Cc2ccc(F)c(F)c2)P(=O)(OC(C)C)OC(C)C)oc2ccccc12` (stereo not shown) [Cpd 11], the “% I (1 μM)” value is 99% and 103%. In addition, where the note is “read-out: IC50”, the IC50 is 0.043 µM and 0.047 µM.
Consider `Cc1c(C(OCc2ccc(F)c(F)c2)P(=O)(CC(C)C)CC(C)C)sc2ccccc12` (stereo not shown) [Cpd 13, 2-[(3,4-Difluoro-benzyloxy)-(diisobutyl-phosphinoyl)-methyl]-3-methyl-benzo[b]thiophene], for which the inhibition at 1 µM under setting [2] came to 100%. The IC50 (read-out: IC50) came to 0.046 µM.
For `CCOP(=O)(OCC)C(Cc1ccc(F)c(F)c1)c1sc2cc(F)ccc2c1C` (stereo not shown) [Cpd 16, [2-(3,4-Difluoro-phenyl)-1-(6-fluoro-3-methyl-benzo[b]-thiophene-2-yl)-ethyl]-phosphonic acid diethyl ester], the inhibition at 1 µM under setting [1] was determined as 100%. Moreover, the concentration for half-maximal inhibition (IC50) (IC50 (μM)) was 0.057 µM and 0.064 µM.
`CC(C)OP(=O)(OC(C)C)C(Cc1ccc(F)c(F)c1)c1sc2ccccc2c1C(C)C` (stereo not shown) [Cpd 19]: the “% I (1 μM)” value worked out at 100%. In addition, the 50% inhibitory concentration (IC50) (read-out: IC50) was determined as 0.068 µM.
As for `CC(C)OP(=O)(OC(C)C)C(Cc1ccc(F)c(F)c1)c1sc2ccccc2c1C1CC1` (stereo not shown) [Cpd 20, [1-(3-Cyclopropyl-benzo[b]thiophene-2-yl)-2-(3,4-difluoro-phenyl)-ethyl]-phosphonic acid diisopropyl ester], under setting [2], the inhibition at 1 µM was determined as 100%. Moreover, under “read-out: IC50”, the IC50 worked out at 0.07 µM.
For `CCOP(=O)(OCC)C(Cc1cccc(Cl)c1F)c1sc2ccccc2c1C` (stereo not shown) [Cpd 23], the “% I (1 μM)” value came out at 100%. Moreover, the IC50 (read-out: IC50) stood at 0.096 µM.
With `CCOP(=O)(OCC)C(Cc1ccc(Cl)c(Cl)c1)c1sc2ccccc2c1Br` (stereo not shown) [Cpd 24, [1-(3-Bromo-benzo[b]thiophen-2-yl)-2-(3,4-dichloro-phenyl)-ethyl]-phosphonic acid diethyl ester], the inhibition at 1 µM under setting [1] was found to be 100%. Besides, half-maximal inhibition (IC50 (μM)) (IC50) was put at 0.107 µM.
As for `CC(C)OP(=O)(OC(C)C)C(Cc1ccc(F)c(F)c1)c1nc2ccccc2s1` (stereo not shown) [Cpd 25, [1-Benzothiazol-2-yl-2-(3,4-difluoro-phenyl)-ethyl]-phosphonic acid diisopropyl ester], under setting [2], the inhibition at 1 µM worked out at 101%. In addition, the IC50 (read-out: IC50) was 0.12 µM and 0.19 µM.
Take `CCOP(=O)(OCC)C(Cc1ccccc1C)c1sc2ccccc2c1C` (stereo not shown) [Cpd 26]: the “% I (1 μM)” value is recorded as 100%. Further, the 50% inhibitory concentration (IC50) (read-out: IC50) came to 0.108 µM.
Consider `CCOP(=O)(OCC)C(Cc1ccc(F)cc1Cl)c1sc2ccccc2c1C` (stereo not shown) [Cpd 27], for which the “% I (1 μM)” value amounted to 99%. Besides, the half-inhibitory concentration (IC50) (read-out: IC50) is 0.11 µM.
For `CCOP(=O)(OCC)C(Cc1cc(F)cc(F)c1Cl)c1sc2ccccc2c1C` (stereo not shown) [Cpd 28], the “% I (1 μM)” value is reported as 100%. Besides, under “read-out: IC50”, the concentration for half-maximal inhibition (IC50) came out at 0.11 µM.
`CCOP(=O)(OCC)C(Cc1cccc(Cl)c1Cl)c1sc2ccccc2c1C` (stereo not shown) [Cpd 35]: the “% I (1 μM)” value is given as 100%. In addition, the concentration for half-maximal inhibition (IC50) (read-out: IC50) was found to be 0.125 µM.
The like results for `CCOP(=O)(CC(C)C)C(Cc1ccc(F)c(F)c1)c1sc2ccccc2c1C` (stereo not shown) [Cpd 36, [2-(3,4-Difluoro-phenyl)-1-(3-methyl-benzo[b]thiophene-2-yl)-ethyl]-isobutyl-phosphonic acid ethyl ester] were, in that order, 100% and 0.126 µM.
The like results for `CCOP(=O)(OCC)C(Cc1cccc(C(F)(F)F)c1F)c1sc2ccccc2c1C` (stereo not shown) [Cpd 37] were, in that order, 100% and 0.127 µM.
The like results for `CC(C)OP(=O)(OC(C)C)C(Cc1ccc(F)c(F)c1)c1sc2ccccc2c1C1CCCC1` (stereo not shown) [Cpd 38] were, in that order, 99% and 0.14 µM.
Take `CCOP(=O)(OCC)C(Cc1cccc(C(F)(F)F)c1)c1cc2ccccc2s1` (stereo not shown) [Cpd 39]: the “% I (1 μM)” value worked out at 100%. The IC50 (read-out: IC50) worked out at 0.141 µM.
In the case of `CC(C)OP(=O)(OC(C)C)C(Cc1ccc(F)c(F)c1)c1sc2ccccc2c1C(F)(F)F` (stereo not shown) [Cpd 43, [2-(3,4-Difluoro-phenyl)-1-(3-trifluoromethyl-benzo[b]-thiophene-2-yl)-ethyl]-phosphonic acid diisopropyl ester], the inhibition at 1 µM under setting [2] came out at 100%. Also, under “read-out: IC50”, the IC50 amounted to 0.16 µM.
Regarding `CCOP(=O)(OCC)C(Cc1ccc(F)c(F)c1)c1sc2ccc(F)cc2c1C` (stereo not shown) [Cpd 45, [2-(3,4-Difluoro-phenyl)-1-(5-fluoro-3-methyl-benzo[b]thiophene-2-yl)-ethyl]-phosphonic acid diethyl ester], the inhibition at 1 µM under setting [1] is 100%. Moreover, where the note is “IC50 (μM)”, the midpoint of inhibition, the IC50, lay at 0.164 µM.
Consider `CCOP(=O)(OCC)C(Cc1ccc2ccccc2c1)c1sc2ccccc2c1C` (stereo not shown) [Cpd 46], for which the “% I (1 μM)” value is 99%. For the same compound, the 50% inhibitory concentration (IC50) (read-out: IC50) turned out to be 0.167 µM.
The like results for `CCOP(=O)(OCC)C(Cc1ccccc1Cl)c1sc2ccccc2c1C` (stereo not shown) [Cpd 48] were, in that order, 100% and 0.169 µM.
As for `CCOP(=O)(OCC)C(Cc1c(Cl)cccc1Cl)c1sc2ccccc2c1C` (stereo not shown) [Cpd 54], the “% I (1 μM)” value worked out at 100%. Moreover, the concentration for half-maximal inhibition (IC50) (read-out: IC50) was 0.23 µM.
Take `CCOP(=O)(OCC)C(Cc1cc(F)cc(C(F)(F)F)c1)c1sc2ccccc2c1C` (stereo not shown) [Cpd 56]: the “% I (1 μM)” value came to 103%. Also, the IC50 (read-out: IC50) is 0.24 µM.
Turning to `CCOP(=O)(OCC)C(Cc1cccc(OC(F)(F)F)c1)c1sc2ccccc2c1C` (stereo not shown) [Cpd 57], the “% I (1 μM)” value is on record as 100%. Moreover, the half-inhibitory concentration (IC50) (read-out: IC50) was 0.26 µM.
In the case of `CCOP(=O)(OCC)C(Cc1ccc(C(F)(F)F)c(F)c1)c1cc2ccccc2s1` (stereo not shown) [Cpd 58], the “% I (1 μM)” value turned out to be 100%. Further, where the note is “read-out: IC50”, the IC50 turned out to be 0.27 µM.
The like results for `CCOP(=O)(OCC)C(Cc1ccccc1C(F)(F)F)c1sc2ccccc2c1C` (stereo not shown) [Cpd 59] were, in that order, 99% and 0.27 µM.
The like results for `CCOP(=O)(OCC)C(Cc1c(Cl)ccc(C)c1F)c1sc2ccccc2c1C` (stereo not shown) [Cpd 60] were, in that order, 100% and 0.28 µM.
The like results for `CCOP(=O)(OCC)C(Cc1ccccc1OC(F)(F)F)c1sc2ccccc2c1C` (stereo not shown) [Cpd 61] were, in that order, 100% and 0.28 µM.
As to `Cc1ccc2sc(C(Cc3ccc(F)c(F)c3)P(=O)(OC(C)C)OC(C)C)c(C)c2c1` (stereo not shown) [Cpd 62, 2-(3,4-Difluoro-phenyl)-[1-(3,5-dimethyl-benzo[b]thiophen-2-yl)-ethyl]-phosphonic acid diisopropyl ester], under setting [2], the inhibition at 1 µM was 95%. Besides, the IC50 (read-out: IC50) amounted to 0.29 µM.
The like results for `CC(C)OP(=O)(OC(C)C)C(Cc1ccc(F)c(F)c1)c1cc2ccccc2s1` (stereo not shown) [Cpd 63, [1-Benzo[b]thiophen-2-yl-2-(3,4-difluoro-phenyl)-ethyl]-phosphonic acid diisopropyl ester] were, in that order, 100% and 0.3 µM.
Regarding `CCOP(=O)(OCC)C(Cc1ccc(Cl)c(Cl)c1)c1sc2ccccc2c1-c1ccccc1` (stereo not shown) [Cpd 64, [2-(3,4-Dichloro-phenyl)-1-(3-phenyl-benzo[b]thiophen-2-yl)-ethyl]-phosphonic acid diethyl ester], the inhibition at 1 µM under setting [1] came to 64%. Under “IC50 (μM)”, this compound registered a concentration for half-maximal inhibition (IC50) of 0.3 µM.
The like results for `CCOP(=O)(OCC)C(Cc1ccc(F)c(F)c1)c1sc2cccc(Cl)c2c1C` (stereo not shown) [Cpd 65, [1-(4-Chloro-3-methyl-benzo[b]thiophen-2-yl)-2-(3,4-difluoro-phenyl)-ethyl]-phosphonic acid diethyl ester] were, in that order, 100% and 0.3 µM.
For the compound `CCOP(=O)(OCC)C(Cc1ccccc1Br)c1sc2ccccc2c1C` (stereo not shown) [Cpd 66], the “% I (1 μM)” value came to 100%. In addition, the 50% inhibitory concentration (IC50) (read-out: IC50) was 0.33 µM.
The like results for `CCOP(=O)(OCC)C(Cc1cc(C(F)(F)F)ccc1F)c1sc2ccccc2c1C` (stereo not shown) [Cpd 67] were, in that order, 100% and 0.33 µM.
For `CCOP(=O)(OCC)C(Cc1ccc(C(F)(F)F)cc1)c1cc2ccccc2s1` (stereo not shown) [Cpd 68], in that order: 96% and 0.34 µM.
